Measurements: patent US10238689B2, “Methods for combating bacterial infections by killing persister cells with mitomycin C and/or cisplatin” (THE PENN STATE RESEARCH FOUNDATION, priority 2015, dated 2019)

Experiments:
[1] = tested on: P. aeruginosa PA14; experiment: Planktonic antibiotic killing assay; assay type: cell-based, Pseudomonas aeruginosa; conditions: mid-stationary phase, rich medium; MMC 10 μg/mL, 3 h
Protocol: (§1) In order to obtain exponential and mid-stationary phase cultures in LB, buffered LB or TSB, overnight cultures (16 h) were diluted 1:1000 in fresh medium and grown to the desired turbidity (i.e., a turbidity below 2 at 600 nm for exponential phase and a turbidity of 3 to 4 at 600 nm for mid-stationary phase). Late-stationary phase cultures in LB or buffered LB were obtained by growing overnight cultures (16 h). In order to obtain exponential and late-stationary phase cultures in M9-glucose, overnight cultures (16 h) were washed diluted 1:1000 in M9-glucose and grown for the desired period of time (i.e., a turbidity of 0.4 at 600 nm for exponential phase and 24 h of growth for late-stationary phase). Anaerobically grown cultures were maintained with ˜20% CO2, ˜79% N2, and ˜1% H2. In order to obtain rifampicin-induced persister cultures in buffered LB, overnight cultures (16 h) were diluted 1:1000 in fresh medium and grown to a turbidity of 0.8 at 600 nm. Cultures were exposed to rifampicin (100 μg/mL) for 30 min, centrifuged, and resuspended in fresh medium to remove the rifampicin.

[2] = tested on: S. aureus (methicillin sensitive); experiment: Planktonic antibiotic killing assay; assay type: cell-based, Staphylococcus aureus; conditions: rich medium (TSB), MMC 10 μg/mL, ciprofloxacin 5 μg/mL, 3 h
Protocol: as §1

[3] = tested on: enterohemorrhagic E. coli (EHEC); experiment: Persister cell assay of pathogens (stationary phase); assay type: cell-based, Escherichia coli; conditions: stationary-phase cells, buffered LB; cisplatin 500 μg/mL, 5×MIC, 3 h
Protocol: (§2) For the persister cell assay of the pathogens, stationary-phase cells were used. Cultures of EHEC, P. aeruginosa, and S. aureus were prepared by a 1:1000 dilution of overnight grown cultures (LB medium for EHEC and P. aeruginosa, TSB for S. aureus) into fresh buffered LB medium for EHEC, M9-glucose for P. aeruginosa, and TSB for S. aureus and re-growing the cells to a turbidity of 3 to 4 at 600 nm for EHEC and S. aureus and growing for 24 h for P. aeruginosa. Stationary-phase cultures of EHEC (buffered LB medium), P. aeruginosa (M9-glucose medium), and S. aureus (TSB medium) were then treated with cisplatin (500 μg/mL for EHEC and S. aureus, 250 μg/mL for P. aeruginosa) for 3 h (250 mL flask, 250 rpm).

[4] = tested on: S. aureus clinical isolates 5B and 50F; experiment: Persister cell assay, clinical isolates; assay type: cell-based, Staphylococcus aureus; conditions: for survival: stationary phase, 500 μg/mL of cisplatin
Protocol: as §2, with “Stationary-phase cultures of EHEC (buffered LB medium), P. aeruginosa (M9-glucose medium), and S. aureus (TSB medium) were then treated with cisplatin (500 μg/mL for EHEC and S. aureus, 250 μg/mL for P. aeruginosa) for 3 h (250 mL flask, 250 rpm).” left out

In the case of `CO[C@@]12[C@H](COC(N)=O)C3=C(C(=O)C(C)=C(N)C3=O)N1C[C@@H]1N[C@@H]12` [MMC, mitomycin C], the survival [1] is reported as 0.0038±0.0005%, the survival ([2]; exponential phase) is reported as “eradicating” and the survival ([2]; mid-stationary phase) is reported as “eradicating”.
In the case of `N.N.[Cl][Pt][Cl]` [cisplatin, cis-diamminodichloroplatinum(II)], the “cell viability after treatment” value [3] is reported as “eradicated”, the “cell viability after treatment” value ([4]; both clinical isolates, 800 μg/mL) is reported as “completely eradicate” and the survival ([4]; isolate 5B) is reported as 2.5±3.5%. The survival ([4]; isolate 50F) was 10±4%.
